Assay results reported in patent publication US20250152564A1, “PROPYLENE KETONE-CONTAINING BIOINHIBITOR, PREPARATION METHOD THEREFOR, AND USE THEREOF” (SHANGHAI HANSOH BIOMEDICAL CO., LTD., priority 2022, published 2025).

Legend:
FGFR2 V564F = FGFR2 V564F (Homo sapiens (Human), UniProt P21802, V564F); experiment: TR-FRET kinase inhibition assay, FGFR2 V564F; format: biochemical; settings: ATP Km concentration (20 μM)
Protocol: (§1) To measure the IC50 values of the compounds against FGFR1, FGFR2, FGFR3, FGFR4, and FGFR2 V564F at ATP Km concentrations by TR-FRET method.
(§2) TR-FRET (time-resolved fluorescence resonance energy transfer) method was used to detect the inhibitory activity of the compounds on FGFR1, FGFR2, FGFR3, FGFR4, and FGFR2 V564F kinase region fragments. The highest detection concentration of the compounds in 5 kinase experiments was 1000 nM, which was diluted in 3 folds, with a total of 11 concentrations (1000 nM to 0.017 nM). A kinase buffer (50 mM HEPES pH 7.5, 1 mM EGTA, 10 mM MgCl2, 2 mM DTT, and 0.01% Tween-20) was used to prepare 4× enzyme solution, 4× compound solutions diluted in gradient, and a 2×ATP/Peptide substrate solution. To a 384-well plate, 2.5 μL of enzyme solution and 2.5 μL of diluted […] compound solution were added, and 5 μL of 2×ATP/Peptide substrate solution was then added. After reacting at room temperature for 60 minutes for FGFR1, FGFR2, FGFR3, and FGFR2 V564F kinases, and 120 minutes for FGFR4 kinase, 10 μL of a 2× termination and detection mixed liquid prepared with 1×LANCE detection buffer with an EDTA concentration of 20 mM and a Europium-anti-phosphotyrosine (PT66) concentration of 2 nM was added to each well of the plate. After reacting at room temperature for 60 minutes for FGFR1, FGFR2, FGFR3, and FGFR4, and 30 minutes for FGFR2 V564F, the fluorescence signal value in each well of the plate was measured by a microplate reader.
(§3) 1) Inhibition rate (%): Calculation was performed on the raw data (665 nm/620 nm reading ratio) according to the following formula to obtain the inhibition rate. Inhibition rate %=[(mean value in positive control well−value in sample well)/(mean value in positive control well−mean value in negative control well)]×100, wherein the positive control well was a reaction well without a compound […], and the negative control well was a reaction wells without an enzyme.
(§4) 2) Curve fitting: Log(inhibitor) vs. response—Variable slope (four parameters) in GraphPad Prism 6 was used for fitting equation analysis of the compound concentration and the corresponding inhibition rate, and the curve was fitted to obtain the IC50 values of the compounds.

FGFR2 = FGFR2 (Homo sapiens (Human), UniProt P21802); experiment: TR-FRET kinase inhibition assay, FGFR2; format: biochemical; settings: ATP Km concentration (30 μM)
FGFR2, sequence (P21802 481-770): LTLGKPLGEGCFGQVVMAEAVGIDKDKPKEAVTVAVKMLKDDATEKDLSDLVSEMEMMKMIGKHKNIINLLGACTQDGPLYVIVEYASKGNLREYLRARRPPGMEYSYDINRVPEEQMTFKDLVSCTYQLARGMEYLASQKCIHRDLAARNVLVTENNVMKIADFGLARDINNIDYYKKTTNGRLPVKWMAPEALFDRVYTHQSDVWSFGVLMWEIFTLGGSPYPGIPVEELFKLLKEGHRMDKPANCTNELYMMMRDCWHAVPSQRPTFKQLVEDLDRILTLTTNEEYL
Protocol: as §1, §2, §3, §4

FGFR1 = FGFR1 (Homo sapiens (Human), UniProt P11362); experiment: TR-FRET kinase inhibition assay, FGFR1; format: biochemical; settings: ATP Km concentration (30 μM)
FGFR1, sequence (P11362 478-767): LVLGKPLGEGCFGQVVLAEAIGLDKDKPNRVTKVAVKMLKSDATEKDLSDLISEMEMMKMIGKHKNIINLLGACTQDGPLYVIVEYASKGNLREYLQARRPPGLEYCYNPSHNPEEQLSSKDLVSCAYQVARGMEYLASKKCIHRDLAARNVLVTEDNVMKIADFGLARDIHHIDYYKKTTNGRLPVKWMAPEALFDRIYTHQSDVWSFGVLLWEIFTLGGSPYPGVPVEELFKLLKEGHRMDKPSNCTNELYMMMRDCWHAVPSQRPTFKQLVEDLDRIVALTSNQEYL
Protocol: as §1, §2, §3, §4

[1] = test system: BaF3 FGFR2-BICC1 V564F cells; experiment: CellTiter-Glo cell proliferation inhibition, BaF3 FGFR2-BICC1 V564F; format: cell-based; settings: Mus musculus, 72 h, read-out: BaF3 FGFR2-BICC1 V564F inhibitory activity IC50
Protocol: To evaluate inhibitory effects of the compounds on the proliferation of NCI-H716, SNU-16 and BaF3-FGFR2-BICC1 V564F cells by cell proliferation inhibition experiments.
CellTiter-Glo method was used to detect inhibitory effects of the compounds on the proliferation of NCI-H716, SNU-16 and BaF3 FGFR2-BICC1 V564F cells. The highest detection concentration of the compounds was 1000 nM, which was diluted in 3 folds, with a total of 9 concentrations (1000 nM to 0.15 nM). After the cells were plated at an appropriate density, compounds were added the next day and incubated for 72 h before detection using the […] detection kit.
as §3, with “(%):” for “(%): Calculation was performed on the raw data (665 nm/620 nm reading ratio) according to the following formula to obtain the inhibition rate.”
as §4

[2] = Pharmacokinetic experiment in SD rats after oral administration; format: in vivo; settings: 5 mg/kg, plasma
Protocol: To study the pharmacokinetic behavior of the compounds of the present invention in the rat body (plasma) after oral administration at a dose of 5 mg/kg using SD rats as test animals.
3 SD rats/group, male, from Shanghai Jiesijie Experimental Animal Co., Ltd., animal production license number (SCXK (Shanghai) 2013-0006 N0.311620400001794).
PO, 10% solutol HS15-0.5% CMC-Na was dissolved by ultrasound and prepared into a clear solution or homogeneous suspension.
3 SD rats/group, male; p.o. respectively at a dose of 5 mg/kg and an administration volume of 10 mL/kg after the […] were fasted overnight.
After oral administration to rats, at 0.25, 0.5, 1, 2, 4, 6, 8 and 24 hours, 0.2 mL of blood was collected from the jugular vein, placed in an EDTA-K2 test tube, centrifuged at 6000 rpm for 6 min at 4° C. to separate the plasma, which was stored at −80° C.
1) 100 μL of acetonitrile was added to 20 μL of plasma sample for pelleting, and it was mixed and centrifuged at 3500×g for 5-20 min.
2) The treated supernatant solution was taken and subjected to LC/MS/MS to analyze the concentrations of the test compounds. LC/MS/MS analysis instrument: AB Sciex API 4000 Qtrap.
• Liquid phase conditions: Shimadzu LC-20AD pump • Chromatographic column: Waters Xbridge C18 5 μm, 4.6×50 mm mobile phase: liquid A was 0.1% aqueous formic acid solution, and liquid B was methanol • Flow rate: 1.0 mL/min • Elution time: 0-4.0 min, the eluent was as follows: […]

FGFR2 V564F, sequence (P21802 481-770 V564F): as the sequence (P21802 481-770) above, with V84F counted along it

Row | SMILES | IC50 (FGFR2 V564F) | IC50 (FGFR2) | IC50 [1] | further results
1 | C=CC(=O)N1CC[C@H](n2nc(C#Cc3cc4ncn(C5CC5)c4cc3Cl)c3c(N)ncc(-c4ccn(C)n4)c32)C1 [Example 43, (S)-1-(3-(4-amino-3-((6-chloro-1-cyclopropyl-1H-benzo[d]imidazol-5-yl)ethynyl)-7-(1-methyl-1H-pyrazol-3-yl)-1H-pyrazolo[4,3-c]pyridin-1-yl)pyrrolidin-1-yl)prop-2-en-1-one] | 1.1 nM | – | – | –
2 | C=CC(=O)N1CC[C@H](n2nc(C#Cc3cc4ncn(CC)c4cc3F)c3c(N)ncc(-c4cscn4)c32)C1 [Example 62, (S)-1-(3-(4-amino-3-((1-ethyl-6-fluoro-1H-benzo[d]imidazol-5-yl)ethynyl)-7-(thiazol-4-yl)-1H-pyrazolo[4,3-c]pyridin-1-yl)pyrrolidin-1-yl)prop-2-en-1-one] | 1.2 nM | 2.4 nM | – | –
3 | C=CC(=O)N1CC[C@H](n2nc(C#Cc3ccc4c(c3)ncn4C3CC3)c3c(N)ncc(C(=O)C(C)C)c32)C1 [Example 40] | 1.9 nM | – | – | –
4 | C=CC(=O)N1CC[C@H](n2nc(C#Cc3c(F)cc4c(ncn4C)c3F)c3c(N)ncc(-c4cscn4)c32)C1 [Example 29, (S)-1-(3-(4-amino-3-((4,6-difluoro-1-methyl-1H-benzo[d]imidazol-5-yl)ethynyl)-7-(thiazol-4-yl)-1H-pyrazolo[4,3-c]pyridin-1-yl)pyrrolidin-1-yl)prop-2-en-1-one] | 3.6 nM | 1.5 nM | – | IC50 (FGFR1): 7.1 nM
5 | C=CC(=O)N1CC[C@H](n2nc(C#Cc3cc4ncn(C5CC5)c4cc3Cl)c3c(N)ncc(C(=O)C(C)C)c32)C1 [Example 47] | 1 nM | – | 0.5 nM | –
6 | C=CC(=O)N1CC[C@H](n2nc(C#Cc3cc4ncn(C5CC5)c4cc3F)c3c(N)ncc(C(=O)C(C)C)c32)C1 [Example 50] | 1 nM | 2.6 nM | 2.1 nM | –
7 | C=CC(=O)N1CC[C@H](n2nc(C#Cc3cc4ncn(C)c4cc3Cl)c3c(N)ncc(C(C)=O)c32)C1 [Example 67, (S)-1-(3-(7-acetyl-4-amino-3-((6-chloro-1-methyl-1H-benzo[d]imidazol-5-yl)ethynyl)-1H-pyrazolo[4,3-c]pyridin-1-yl)pyrrolidin-1-yl)prop-2-en-1-one] | 1.6 nM | – | 1.6 nM | –
8 | C=CC(=O)N1CC[C@H](n2nc(C#Cc3cc4ncn(C)c4cc3F)c3c(N)ncc(-c4cscn4)c32)C1 [Example 14, 1-[(3S)-3-[4-amino-3-[2-(6-fluoro-1-methyl-benzo[d]imidazol-5-yl)ethynyl]-7-thiazol-4-yl-pyrazolo[4,3-c]pyridin-1-yl]pyrrolidin-1-yl]-2-propen-1-one] | 1.3 nM | 2.4 nM | – | –
9 | C=CC(=O)N1CC[C@H](n2nc(C#Cc3ccc4c(c3)ncn4CC)c3c(N)ncc(C(C)=O)c32)C1 [Example 56, (S)-1-(3-(7-acetyl-4-amino-3-((1-ethyl-1H-benzo[d]imidazol-5-yl)ethynyl)-1H-pyrazolo[4,3-c]pyridin-1-yl)pyrrolidine-1-methyl)prop-2-en-1-one] | 0.7 nM | 1.8 nM | 3.5 nM | –
10 | C=CC(=O)N1CC[C@H](n2nc(C#Cc3cc4ncn(C5CC5)c4cc3F)c3c(N)ncc(C4CC4)c32)C1 [Example 52, (S)-1-(3-(4-amino-7-cyclopropyl-3-((1-cyclopropyl-6-fluoro-1H-benzo[d]imidazol-5-yl)alkynyl)-1H-pyrazolo[4,3-c]pyridin-1-yl)pyrrolidin-1-yl)prop-2-en-1-one] | 1.8 nM | – | – | –
11 | C=CC(=O)N1CC[C@H](n2nc(C#Cc3ccc4c(c3)ncn4C3CC3)c3c(N)ncc(-c4ccn(C)n4)c32)C1 [Example 42, (S)-1-(3-(4-amino-3-((1-cyclopropyl-1H-benzo[d]imidazol-5-yl)ethynyl)-7-(1-methyl-1H-pyrazol-3-yl)-1H-pyrazolo[4,3-c]pyridin-1-yl)pyrrolidine-1-methyl)prop-2-en-1-one] | 3.9 nM | – | – | –
12 | C=CC(=O)N1CC[C@H](n2nc(C#Cc3cc4ncn(C)c4cc3F)c3c(N)ncc(C4CC4)c32)C1 [Example 20, (S)-1-(3-(4-amino-7-cyclopropyl-3-((6-fluoro-1-methyl-1H-benzo[d]imidazol-5-yl)ethynyl)-1H-pyrazolo[4,3-c]pyridin-1-yl)pyrrolidin-1-yl)prop-2-en-1-one] | 2.8 nM | – | – | –
13 | C=CC(=O)N1CC[C@H](n2nc(C#Cc3ccc4c(c3)ncn4CC)c3c(N)ncc(C(=O)C(C)C)c32)C1 [Example 59] | 1.1 nM | 3.4 nM | 4 nM | –
14 | C=CC(=O)N1CC[C@H](n2nc(C#Cc3ccc4oc(C5CC5)nc4c3)c3c(N)ncnc32)C1 [B, reference compound] | 18.4 nM | – | 11.5 nM | –
15 | C=CC(=O)N1CC[C@H](n2nc(C#Cc3cc4ncn(C5CC5)c4cc3F)c3c(N)ncc(C(=O)CC)c32)C1 [Example 48, (S)-1-(3-(4-amino-3-((1-cyclopropyl-6-fluoro-1H-benzo[d]imidazol-5-yl)ethynyl)-7-propionyl-1H-pyrazolo[4,3-c]pyridin-1-yl)pyrrolidin-1-yl)prop-2-en-1-one] | 0.8 nM | 1.7 nM | 1.4 nM | AUC(0-t) ([2]; male, Sprague-Dawley (SD), rat, po, read-out: Area under the curve AUC0-t): 4120 ng·h/mL; AUC(0-inf) ([2]; male, Sprague-Dawley (SD), rat, po, read-out: Area under the curve AUC0-∞): 4150 ng·h/mL; half-life ([2]; male, Sprague-Dawley (SD), rat, po, read-out: Half-life t1/2 (converted)): 3.9 h; MRT ([2]; male, Sprague-Dawley (SD), rat, po, read-out: Mean residence time MRT): 4.2 h; Cmax ([2]; male, Sprague-Dawley (SD), rat, po, read-out: Plasma concentration Cmax): 795 ng/mL; Time to peak tmax ([2]; p.o.): 2 h
16 | C=CC(=O)N1CC[C@H](n2nc(C#Cc3ccc4c(c3)nc(C)n4C3CC3)c3c(N)ncc(C(C)=O)c32)C1 [Example 53, (S)-1-(3-(7-acetyl-4-amino-3-((1-cyclopropyl-2-methyl-1H-benzo[d]imidazol-5-yl)ethynyl)-1H-pyrazolo[4,3-c]pyridin-1-yl)pyrrolidin-1-yl)prop-2-en-1-one] | 1.9 nM | 3.5 nM | 4.9 nM | –
17 | C=CC(=O)N1CC[C@H](n2nc(C#Cc3cc4ncn(C5CC5)c4cc3F)c3c(N)ncc(C)c32)C1 [Example 51, (S)-1-(3-(4-amino-3-((1-cyclopropyl-6-fluoro-1H-benzo[d]imidazol-5-yl)ethynyl)-7-methyl-1H-pyrazolo[4,3-c]pyridin-1-yl)pyrrolidin-1-yl)prop-2-en-1-one] | 3.3 nM | – | – | –
18 | C=CC(=O)N1CC[C@H](n2nc(C#Cc3cc4ncn(C)c4cc3F)c3c(N)nccc32)C1 [A, reference compound] | 6.1 nM | 12.8 nM | 7.4 nM | –
